Results reported in PubChem BioAssay AID1259407 (Chemical Carcinogenesis Research Information System (CCRIS), 2018).
Active and inactive are the calls of the source. How the calls were made is not given here.

Test system: CCRIS mutagenicity, Ames/micronucleus/aberration tests
Assay: CCRIS mutagenicity studies
[1] = Test System: AMES SALMONELLA TYPHIMURIUM, Strain/Indicator: TA98, Metabolic Activation: NONE, Method: PREINCUBATION
[2] = Test System: AMES SALMONELLA TYPHIMURIUM, Strain/Indicator: TA100, Metabolic Activation: NONE, Method: PREINCUBATION
[3] = Test System: MOUSE LYMPHOMA, Strain/Indicator: L5178Y (TK+/TK-), Metabolic Activation: NONE, Method: SUSPENSION/PLATE
[4] = Test System: AMES SALMONELLA TYPHIMURIUM, Strain/Indicator: TA98, Metabolic Activation: NONE, Method: STANDARD PLATE
[5] = Test System: AMES SALMONELLA TYPHIMURIUM, Strain/Indicator: TA100, Metabolic Activation: NONE, Method: STANDARD PLATE
[6] = Test System: AMES SALMONELLA TYPHIMURIUM, Strain/Indicator: TA98, Metabolic Activation: HAMSTER, LIVER, S-9, AROCLOR 1254, Method: STANDARD PLATE
[7] = Test System: AMES SALMONELLA TYPHIMURIUM, Strain/Indicator: TA98, Metabolic Activation: RAT, LIVER, S-9, AROCLOR 1254, Method: STANDARD PLATE
[8] = Test System: AMES SALMONELLA TYPHIMURIUM, Strain/Indicator: TA100, Metabolic Activation: HAMSTER, LIVER, S-9, AROCLOR 1254, Method: STANDARD PLATE
[9] = Test System: AMES SALMONELLA TYPHIMURIUM, Strain/Indicator: TA100, Metabolic Activation: RAT, LIVER, S-9, AROCLOR 1254, Method: STANDARD PLATE

[Na+]
mutagenic call (Test System: AMES SALMONELLA TYPHIMURIUM, Strain/Indicator: TA97, Metabolic Activation: HAMSTER, LIVER, S-9, AROCLOR 1254 (10 OR 30%), Method: PREINCUBATION): inactive; negative | mutagenic call (Test System: AMES SALMONELLA TYPHIMURIUM, Strain/Indicator: TA97, Metabolic Activation: NONE, Method: PREINCUBATION): inactive; negative | mutagenic call (Test System: AMES SALMONELLA TYPHIMURIUM, Strain/Indicator: TA97, Metabolic Activation: RAT, LIVER, S-9, AROCLOR 1254 (10 OR 30%), Method: PREINCUBATION): inactive; negative | mutagenic call (Test System: AMES SALMONELLA TYPHIMURIUM, Strain/Indicator: TA98, Metabolic Activation: HAMSTER, LIVER, S-9, AROCLOR 1254 (10 OR 30%), Method: PREINCUBATION): inactive; negative | mutagenic call [1]: inactive; negative | mutagenic call (Test System: AMES SALMONELLA TYPHIMURIUM, Strain/Indicator: TA98, Metabolic Activation: RAT, LIVER, S-9, AROCLOR 1254 (10 OR 30%), Method: PREINCUBATION): inactive; negative | mutagenic call (Test System: AMES SALMONELLA TYPHIMURIUM, Strain/Indicator: TA100, Metabolic Activation: HAMSTER, LIVER, S-9, AROCLOR 1254 (10 OR 30%), Method: PREINCUBATION): inactive; negative | mutagenic call [2]: inactive; negative | mutagenic call (Test System: AMES SALMONELLA TYPHIMURIUM, Strain/Indicator: TA100, Metabolic Activation: RAT, LIVER, S-9, AROCLOR 1254 (10 OR 30%), Method: PREINCUBATION): inactive; negative | mutagenic call (Test System: AMES SALMONELLA TYPHIMURIUM, Strain/Indicator: TA1535, Metabolic Activation: HAMSTER, LIVER, S-9, AROCLOR 1254 (10 OR 30%), Method: PREINCUBATION): inactive; negative | mutagenic call (Test System: AMES SALMONELLA TYPHIMURIUM, Strain/Indicator: TA1535, Metabolic Activation: NONE, Method: PREINCUBATION): inactive; negative | mutagenic call (Test System: AMES SALMONELLA TYPHIMURIUM, Strain/Indicator: TA1535, Metabolic Activation: RAT, LIVER, S-9, AROCLOR 1254 (10 OR 30%), Method: PREINCUBATION): inactive; negative | mutagenic call (Test System: AMES SALMONELLA TYPHIMURIUM, Strain/Indicator: TA1537, Metabolic Activation: HAMSTER, LIVER, S-9, AROCLOR 1254 (30%), Method: PREINCUBATION): inactive; negative | mutagenic call (Test System: AMES SALMONELLA TYPHIMURIUM, Strain/Indicator: TA1537, Metabolic Activation: NONE, Method: PREINCUBATION): inactive; negative | mutagenic call (Test System: AMES SALMONELLA TYPHIMURIUM, Strain/Indicator: TA1537, Metabolic Activation: RAT, LIVER, S-9, AROCLOR 1254 (30%), Method: PREINCUBATION): inactive; negative | mutagenic call (Test System: CHINESE HAMSTER OVARY, Strain/Indicator: CHO-K1-BH4 (HGPRT), Metabolic Activation: NONE, Method: SUSPENSION/PLATE): inactive; negative | mutagenic call (Test System: CHINESE HAMSTER OVARY, Strain/Indicator: CHO-K1-BH4 (HGPRT), Metabolic Activation: RAT, LIVER, S-9, AROCLOR, Method: SUSPENSION/PLATE): inactive; negative | mutagenic call [3]: active; positive

Clc1cccc2c1oc1ccccc12
mutagenic call [4]: inactive; negative | mutagenic call (Test System: AMES SALMONELLA TYPHIMURIUM, Strain/Indicator: TA98, Metabolic Activation: RAT, LIVER, S-9, PHENOBARBITAL AND NAPHTHOFLAVONE, Method: STANDARD PLATE): inactive; negative | mutagenic call [5]: inactive; negative | mutagenic call (Test System: AMES SALMONELLA TYPHIMURIUM, Strain/Indicator: TA100, Metabolic Activation: RAT, LIVER, S-9, PHENOBARBITAL AND NAPHTHOFLAVONE, Method: STANDARD PLATE): inactive; negative

Nc1cccc(N)c1C(=O)O
mutagenic call [1]: inactive; negative | mutagenic call (Test System: AMES SALMONELLA TYPHIMURIUM, Strain/Indicator: TA98, Metabolic Activation: RAT, LIVER, S-9, PHENOBARBITAL AND 5,6-BENZOFLAVONE, Method: PREINCUBATION): active; positive | mutagenic call [2]: inactive; negative | mutagenic call (Test System: AMES SALMONELLA TYPHIMURIUM, Strain/Indicator: TA100, Metabolic Activation: RAT, LIVER, S-9, PHENOBARBITAL AND 5,6-BENZOFLAVONE, Method: PREINCUBATION): inactive; negative

CC(=O)Nc1ccc(S(N)(=O)=O)cc1
mutagenic call [1]: inactive; negative | mutagenic call (Test System: AMES SALMONELLA TYPHIMURIUM, Strain/Indicator: TA98, Metabolic Activation: RAT, LIVER, S-9, AROCLOR 1254, Method: PREINCUBATION): inactive; negative | mutagenic call [2]: inactive; negative | mutagenic call (Test System: AMES SALMONELLA TYPHIMURIUM, Strain/Indicator: TA100, Metabolic Activation: RAT, LIVER, S-9, AROCLOR 1254, Method: PREINCUBATION): inactive; negative

CC(Br)C(=O)N(C)Cc1ccccc1 (stereo not given)
mutagenic call (Test System: AMES SALMONELLA TYPHIMURIUM, Strain/Indicator: TA100, Metabolic Activation: MOUSE, LIVER, S-9, AROCLOR 1254, Method: STANDARD PLATE): inactive; negative | mutagenic call [5]: inactive; negative

NC(=O)/N=N/C(N)=O
mutagenic call [6]: inactive; negative | mutagenic call [4]: inactive; negative | mutagenic call [7]: inactive; negative | mutagenic call [8]: active; positive | mutagenic call [5]: active; positive | mutagenic call [9]: active; positive | mutagenic call [3]: inactive; negative. reevaluation of results: inconclusive | mutagenic call (Test System: MOUSE LYMPHOMA, Strain/Indicator: L5178Y (TK+/TK-), Metabolic Activation: RAT, LIVER, S-9, AROCLOR 1254, Method: SUSPENSION/PLATE): inactive; negative. reevaluation of results: negative

O=C1CC(c2ccc(O)cc2)Oc2cc(O)cc(O)c21 (stereo not given)
mutagenic call [6]: inactive; negative | mutagenic call [4]: inactive; negative | mutagenic call [7]: inactive; negative | mutagenic call [8]: inactive; negative | mutagenic call [5]: inactive; negative | mutagenic call [9]: inactive; negative | mutagenic call (Test System: AMES SALMONELLA TYPHIMURIUM, Strain/Indicator: TA1535, Metabolic Activation: HAMSTER, LIVER, S-9, AROCLOR 1254, Method: STANDARD PLATE): inactive; negative | mutagenic call (Test System: AMES SALMONELLA TYPHIMURIUM, Strain/Indicator: TA1535, Metabolic Activation: NONE, Method: STANDARD PLATE): inactive; negative | mutagenic call (Test System: AMES SALMONELLA TYPHIMURIUM, Strain/Indicator: TA1535, Metabolic Activation: RAT, LIVER, S-9, AROCLOR 1254, Method: STANDARD PLATE): inactive; negative | mutagenic call (Test System: AMES SALMONELLA TYPHIMURIUM, Strain/Indicator: TA1537, Metabolic Activation: HAMSTER, LIVER, S-9, AROCLOR 1254, Method: STANDARD PLATE): inactive; negative | mutagenic call (Test System: AMES SALMONELLA TYPHIMURIUM, Strain/Indicator: TA1537, Metabolic Activation: NONE, Method: STANDARD PLATE): inactive; negative | mutagenic call (Test System: AMES SALMONELLA TYPHIMURIUM, Strain/Indicator: TA1537, Metabolic Activation: RAT, LIVER, S-9, AROCLOR 1254, Method: STANDARD PLATE): inactive; negative | mutagenic call (Test System: AMES SALMONELLA TYPHIMURIUM, Strain/Indicator: TA1538, Metabolic Activation: HAMSTER, LIVER, S-9, AROCLOR 1254, Method: STANDARD PLATE): inactive; negative | mutagenic call (Test System: AMES SALMONELLA TYPHIMURIUM, Strain/Indicator: TA1538, Metabolic Activation: NONE, Method: STANDARD PLATE): inactive; negative | mutagenic call (Test System: AMES SALMONELLA TYPHIMURIUM, Strain/Indicator: TA1538, Metabolic Activation: RAT, LIVER, S-9, AROCLOR 1254, Method: STANDARD PLATE): inactive; negative

ClC(Cl)C(Cl)(Cl)Cl
mutagenic call (End Point: IN VITRO CHROMOSOMAL ABERRATIONS, Test System: CHINESE HAMSTER LUNG FIBROBLAST CELLS (CHL/IU), Metabolic Activation: RAT, LIVER, S-9, PHENOBARBITAL AND 5,6-BENZOFLAVONE): inactive; negative | mutagenic call (End Point: IN VITRO CHROMOSOMAL ABERRATIONS, Test System: CHINESE HAMSTER OVARY CELLS, Metabolic Activation: NONE): inactive; negative | mutagenic call (End Point: IN VITRO CHROMOSOMAL ABERRATIONS, Test System: CHINESE HAMSTER OVARY CELLS, Metabolic Activation: RAT, LIVER, S-9, AROCLOR 1254): inactive; negative | mutagenic call (Test System: MOUSE LYMPHOMA, Strain/Indicator: L5178Y (TK+/TK-), Metabolic Activation: NONE, Method: MICROWELL): active; positive | mutagenic call (Test System: MOUSE LYMPHOMA, Strain/Indicator: L5178Y (TK+/TK-), Metabolic Activation: S-9, Method: MICROWELL): inactive; negative
